Laboratory results: US6858625B1, “Quinolinecarboxylic acid derivative or salts thereof” (Wakunaga Pharmaceutical Co., Ltd., priority 1999, dated 2005)
Converted amounts (≈) assume the structure as drawn.

What was measured:
[1] = In vivo pharmacokinetic study (absorption and excretion in dogs); parameters: species or system beagles; settings: for AUC(0-t) / Cmax / Tmax / half-life / Urinary excretion rate: male beagles, per os; for AUC(0-t) / Cmax / Tmax / half-life: 10 mg/mL/kg in 0.5% methyl cellulose; for Urinary excretion rate: 10 mg/mL/kg, urine up to 24th hour
Description: An investigation was made on the absorption and excretion of the compounds of the present invention in and from dogs. A 0.5% suspension of one of the test compounds in methyl cellulose (10 mg/mL/kg) was forcedly administered per os to 2-4 years old, male beagles fasted for 16 to 17 hours. After the administration, blood samples were collected on the 0.25th, 0.5th, 1st, 2nd, 4th, 6th, 8th and 24th hours, and serum samples were obtained. To determine urinary excretion rates, urine samples were also collected up to 24th hour after the administration. The concentrations of the test compound in the serum samples and urine samples were measured by the paper disk method making use of Bacillus subtilis ATCC6633 as a test bacterium, and the absorption and excretion were ranked.

B. subtilis ATCC6633 = assay: Minimum growth inhibitory concentration (MIC), standard method of the Japan Society of Chemotherapy; assay type: cell-based; settings: Bacillus subtilis
Description: (§1) Their minimum growth inhibitory concentrations (MICs: μg/mL) were determined in accordance with the standard method of the Japan Society of Chemotherapy [Chemotherapy, 29(1), 76 (1981)].

S. aureus 209P = assay: as above; assay type: cell-based; settings: Staphylococcus aureus
Description: as §1

E. coli NIHJ-JC2 = assay: as above; assay type: cell-based; settings: Escherichia coli, NIHJJC2
Description: as §1

P. aeruginosa E-2 = assay: as above; assay type: cell-based; settings: Pseudomonas aeruginosa, E2
Description: as §1

MRSA W200 = assay: as above; assay type: cell-based; settings: Staphylococcus aureus
Description: as §1

P. aeruginosa IFO3445 = assay: as above; assay type: cell-based; settings: Pseudomonas aeruginosa
Description: as §1

S. epidermidis IFO12293 = assay: as above; assay type: cell-based; settings: Staphylococcus epidermidis
Description: as §1

E. faecalis IFO12580 = assay: as above; assay type: cell-based; settings: Enterococcus faecalis
Description: as §1

P. vulgaris IFO3167 = assay: as above; assay type: cell-based; settings: Proteus vulgaris
Description: as §1

K. pneumoniae KC-1 = assay: as above; assay type: cell-based; settings: Klebsiella pneumoniae, KC1
Description: as §1

M. luteus IFO12708 = assay: as above; assay type: cell-based; settings: Micrococcus luteus
Description: as §1

S. marcescens IFO3736 = assay: as above; assay type: cell-based; settings: Serratia marcescens
Description: as §1

[2] = system: Isolated coccus 5 (clinically-isolated quinolone resistant pneumococci); assay: MIC against clinically-isolated quinolone resistant pneumococci, agar plates with 5% defibrinated sheep blood; assay type: cell-based; settings: Isolated coccus 5, quinolone resistant pneumococcus
Description: (§2) Using agar plates added with 5% defibrinated sheep blood, minimum growth inhibition concentrations (MICs; μg/mL) against certain pneumococci were determined in accordance with the standard method of the Japan Society of Chemotherapy [Chemotherapy, 29(1), 76 (1981)].

[3] = system: Isolated coccus 1 (clinically-isolated quinolone resistant pneumococci); assay: as above; assay type: cell-based; settings: Isolated coccus 1, quinolone resistant pneumococcus
Description: as §2

[4] = Phototoxicity test (ear abnormality after UV exposure); assay type: in vivo, ICR mice; settings: 40 mg/kg i.v., 4 h UV 320-400 nm; for Ear abnormality (point): 0 = no abnormality to 3 = severe erythema or edema; for Ear abnormality (frequency): affected/total mice
Description: A phototoxicity test was performed by the following procedure. Female ICR mice (5 to 6 weeks old) were intravenously administered with the test compounds (40 mg/kg/10 mL), respectively, and were exposed for 4 hours to ultraviolet rays (320 to 400 nm, 1.8 mW/cm^2/sec). […] Ear abnormality was ranked by the following standards: no abnormality (0 point), mild erythema (1 point), medium erythema (2 points), and severe erythema or edema (3 points) The results are presented in Table 2.

[5] = beagle, dog, po, 10 mg/kg, serum

Row | Compound | AUC(0-t) [1, 5] [ng·h/mL] | Cmax [1, 5] [ng/mL] | Tmax [1, 5] [h] | half-life [1, 5] [h] | Urinary excretion rate [1] [%] | MIC (B. subtilis ATCC6633) [µg/mL] | MIC (S. aureus 209P) [µg/mL] | MIC (E. coli NIHJ-JC2) [µg/mL] | MIC (P. aeruginosa E-2) [µg/mL] | MIC (MRSA W200) [µg/mL] | MIC (P. aeruginosa IFO3445) [µg/mL] | MIC (S. epidermidis IFO12293) [µg/mL] | MIC (E. faecalis IFO12580) [µg/mL] | MIC (P. vulgaris IFO3167) [µg/mL] | MIC (K. pneumoniae KC-1) [µg/mL] | MIC (M. luteus IFO12708) [µg/mL] | MIC (S. marcescens IFO3736) [µg/mL] | MIC [2] [µg/mL] | MIC [3] [µg/mL] | Ear abnormality (point) ([4]; 0 hour after exposure) | further results
1 | CCNC1CN(c2c(F)cc3c(=O)c(C(=O)O)cn(-c4nc(N)c(F)cc4F)c3c2Br)C1.O=C(O)/C=C\C(=O)O [Compound 2, 1-(6-amino-3,5-difluoropyridin-2-yl)-8-bromo-7-(3-ethylaminoazetidin-1-yl)-6-fluoro-4-oxo-1,4-dihydroquino line-3-carboxylic acid maleate] | 17600 | 3730 | 1 | 4.8 | 17.4 |  |  |  |  |  |  |  |  |  |  |  |  |  |  |  | 
2 | CNC1CN(c2c(F)cc3c(=O)c(C(=O)O)cn(-c4nc(N)c(F)cc4F)c3c2Br)C1 [Comparative Compound 1, 1-(6-amino-3,5-difluoropyridin-2-yl)-8-bromo-7-(3-methylaminoazetidin-1-yl)-6-fluoro-4-oxo-1,4-dihydroquinoline-3-carboxylic acid] | 8540 | 2350 | 0.5 | 2 | 14.8 | 0.05 (≈ 0.1 µM) | 0.013 (≈ 0.0261 µM) | 0.013 (≈ 0.0261 µM) | 0.78 (≈ 1.57 µM) | 0.025 (≈ 0.0502 µM) | 0.39 (≈ 0.783 µM) | 0.05 (≈ 0.1 µM) | 0.39 (≈ 0.783 µM) | 0.1 (≈ 0.201 µM) | 0.025 (≈ 0.0502 µM) | 0.39 (≈ 0.783 µM) | 1.56 (≈ 3.13 µM) | 0.5 (≈ 1 µM) | 0.06 (≈ 0.12 µM) | 0 | Ear abnormality (frequency) ([4]; 0 hour after exposure): 0/3; Ear abnormality (point) ([4]; 24 hours after exposure): 0 point; Ear abnormality (frequency) ([4]; 24 hours after exposure): 0/3; Ear abnormality (point) ([4]; 48 hours after exposure): 0 point; Ear abnormality (frequency) ([4]; 48 hours after exposure): 0/3
3 | CCNC1CN(c2c(F)cc3c(=O)c(C(=O)O)cn(-c4nc(N)c(F)cc4F)c3c2Cl)C1 [Comparative Compound 2, 1-(6-amino-3,5-difluoro-pyridin-2-yl)-8-chloro-7-(3-ethylaminoazetidin-1-yl)-6-fluoro-4-oxo-1,4-dihydroquinoline-3-carboxylic acid] |  |  |  |  |  | 0.025 (≈ 0.0534 µM) | 0.013 (≈ 0.0278 µM) | 0.025 (≈ 0.0534 µM) | 1.56 (≈ 3.33 µM) | 0.025 (≈ 0.0534 µM) | 0.39 (≈ 0.834 µM) | 0.05 (≈ 0.107 µM) | 0.78 (≈ 1.67 µM) | 0.2 (≈ 0.428 µM) | 0.05 (≈ 0.107 µM) | 0.78 (≈ 1.67 µM) | 1.56 (≈ 3.33 µM) |  |  | 0.7 | Ear abnormality (frequency) ([4]; 0 hour after exposure): 2/3; Ear abnormality (point) ([4]; 24 hours after exposure): 0 point; Ear abnormality (frequency) ([4]; 24 hours after exposure): 0/3; Ear abnormality (point) ([4]; 48 hours after exposure): 0 point; Ear abnormality (frequency) ([4]; 48 hours after exposure): 0/3
4 | CCNC1CN(c2c(F)cc3c(=O)c(C(=O)O)cn(-c4nc(N)c(F)cc4F)c3c2Br)C1 [Compound 1, 1-(6-amino-3,5-difluoropyridin-2-yl)-8-bromo-7-(3-ethylaminoazetidin-1-yl)-6-fluoro-4-oxo-1,4-dihydroquinoline-3-carboxylic acid] | 22800 | 4820 | 1 | 3.8 | 19.8 | 0.025 (≈ 0.0488 µM) | 0.013 (≈ 0.0254 µM) | 0.025 (≈ 0.0488 µM) | 1.56 (≈ 3.05 µM) | 0.013 (≈ 0.0254 µM) | 0.78 (≈ 1.52 µM) | 0.025 (≈ 0.0488 µM) | 0.39 (≈ 0.761 µM) | 0.1 (≈ 0.195 µM) | 0.05 (≈ 0.0976 µM) | 0.39 (≈ 0.761 µM) | 1.56 (≈ 3.05 µM) | 0.12 (≈ 0.234 µM) | 0.03 (≈ 0.0586 µM) | 0 | bioavailability ([1]; male, beagle, dog, serum, po, 10 mg/kg, administered orally, calculated from an AUC up to 24th hour after administration): 78%; Ear abnormality (frequency) ([4]; 0 hour after exposure): 0/3; Ear abnormality (point) ([4]; 24 hours after exposure): 0 point; Ear abnormality (frequency) ([4]; 24 hours after exposure): 0/3; Ear abnormality (point) ([4]; 48 hours after exposure): 0 point; Ear abnormality (frequency) ([4]; 48 hours after exposure): 0/3
5 | C[C@H]1COc2c(N3CCN(C)CC3)c(F)cc3c(=O)c(C(=O)O)cn1c23 [LVFX, S(−)-9-fluoro-2,3-dihydro-3-methyl-10-(4-methyl-1-piperazinyl)-7-oxo-7H-pyrido[1,2,3-de][1,4]benzoxazine-6-carboxylic acid] |  |  |  |  |  | 0.1 (≈ 0.277 µM) | 0.2 (≈ 0.553 µM) | 0.05 (≈ 0.138 µM) | 1.56 (≈ 4.32 µM) | 0.39 (≈ 1.08 µM) | 0.78 (≈ 2.16 µM) | 0.78 (≈ 2.16 µM) | 1.56 (≈ 4.32 µM) | 0.05 (≈ 0.138 µM) | 0.1 (≈ 0.277 µM) | 0.78 (≈ 2.16 µM) | 0.78 (≈ 2.16 µM) | 32 (≈ 88.6 µM) | 2 (≈ 5.53 µM) |  | 
6 | O=C(O)c1cn(C2CC2)c2cc(N3CCNCC3)c(F)cc2c1=O [CPFX, 1-cyclopropyl-6-fluoro-7-(1-piperadinyl)-1,4-dihydro-4-oxoquinoline-3-carboxylic acid] |  |  |  |  |  | 0.05 (≈ 0.151 µM) | 0.2 (≈ 0.604 µM) | 0.025 (≈ 0.0754 µM) | 0.78 (≈ 2.35 µM) | 0.78 (≈ 2.35 µM) | 0.39 (≈ 1.18 µM) | 1.56 (≈ 4.71 µM) | 1.56 (≈ 4.71 µM) | 0.05 (≈ 0.151 µM) | 0.05 (≈ 0.151 µM) | 3.13 (≈ 9.45 µM) | 0.2 (≈ 0.604 µM) |  |  |  | 
